Test results as given in patent publication US8916604B2, “Compositions and methods for epigenetic modification of nucleic acid sequences” (Rutgers, The State University of New Jersey, priority 2011, dated 2014).

What was measured:
[1] = Overall health and toxicity of TRAMP mice on DIM diet; type: in vivo
Method: DIM was obtained from Sigma-Aldrich (St. Louis, Mo., U.S.A.). MN-76A diets containing 1% DIM were prepared by Research Diets Inc. (New Brunswick, N.J., U.S.A.) and stored at −20° C. The dose was chosen based in part on studies reported previously Anderton et al., Drug Metab Dispos. 2004; 32: 632-8; and Xue et al., J Nutr Biochem. 2008; 19: 336-44). In our present study, 1% DIM was well-tolerated with these TRAMP mice. The control TRAMP males (n=19) received A1N-76A diets throughout the experiment while the treated TRAMP males received 1% DIM diet starting from eight weeks of age (n=9) as Group 1 (D-G1) and Group 2 (D-G2) starting from twelve weeks of age (n=8) (FIG. 12A). Fresh diets were added to the cages twice weekly.
TRAMP males were weighed weekly and the overall health of the animals was monitored on a regular basis. All mice were sacrificed at the age of 24 weeks by carbon dioxide euthanasia and the genitourinary apparatus (GU) consisting of the seminal vesicles, prostate, and bladder were isolated for further analyses (FIG. 12B).
The overall health of all the mice was monitored during the study period and found to be in good health. All mice were weighed and checked weekly during the course of this study.

5-methylcytosine (5-MC) = assay: IHC staining of TRAMP prostate tissue, global CpG methylation; type: in vivo, mouse; details: D-G1 and D-G2, p<0.001
Method: Sections (4 μm) were cut from the paraffin embedded prostate tissue and mounted on glass slides. The slides Were deparafinized in xylene and antigen unmasking was performed by applying proteinase K digestion directly on the slides for 15 min. Endogenous peroxidase was blocked by incubating in 3% […] for 5 min, and ApopTag Plus Peroxidase In Situ Apoptosis Detection Kit (Millipore, Temecula, Calif., U.S.A.) was used to detect apoptotic cells. For detection of proliferative cells, monoclonal mouse anti-proliferating cell nuclear antigen (PCNA) antibody (Clone PC10, 1:50, Dako North America, Carpinteria, Calif., U.S.A.) was used (12). The staining was performed following as the manufacturer's protocols. Anti-5-methylcytosine (5-MC) mouse monoclone antibody (Clone 162 33 D3, 1:50, EMD Chemicals, Philadelphia, Pa., U.S.A.) was used to detect genome-wide methylated DNA. […] Quantitation of IHC staining was done using the Aperio ScanScope® GL system according to the manufactures protocol (Aperio Technologies Inc., Vista, Calif., U.S.A.). […] The Aperio ImageScopoe software (v 10.1.3.2028) allowed the unbiased quantification and quantitative analysis of the IHC staining of biomarkers of prostate tumor samples obtained from untreated control versus the treated TRAMP mice.

DNMT1 = assay: qPCR in TRAMP C1 cells; type: cell-based, mouse; details: 5 μM and 10 μM, p<0.05
Method: (§1) The DIM used in the study contains approximately 98% of DIM purchased from Sigma-Aldrich t St. Louis, Mo., USA), TRAMP C1 cells (provided by Dr. Barbara Foster, Department of Pharmacology and Therapeutics, Roswell Park Cancer institute, Buffalo. NY), originally derived from TRAMP prostate tumor, were cultured in Dulbecco's Modified Eagle's Medium (Invitrogen Corp., Carlsbad, Calif. U.S.A.) supplemented with 10% (V/V) fetal bovine serum (FBS) (Invitrogen Corp., Grand Island, N.Y., U.S.A.), penicillin 100 U/ml, and streptomycin 100 μg/ml (Invitrogen Corp., Grand Island, N.Y., U.S.A.), Cells were maintained in a humidified incubator with 5% CO2 at 37° C. Cells were seeded in 10 cm plates for 24 h and then treated with 0.1% DMSO (control) or different concentrations of DIM in 1% FBS containing medium for 5 days. The medium was changed every 2 days (20), Total RNA were extracted from DIM treated TRAMP C1 cells and were reversed transcribed. The primers, DNMT1, DNMT3a, DNMT3b, NQO1, HO-1, GSTm1, UGT1a1 and control β-actin of qPCR are listed in Table 5 (Integrated DNA. Technologies, Coralville, Iowa, U.S.A.), The qPCR reactions were carried out with 1 μl cDNA product, 50 nM of each primer, and Power SYBR Green master mix (Applied Biosystems, Foster City, Calif., U.S.A.) in 10 μl reactions. The reactions were performed using an ABI Prism 7900HT sequence detection system; specificity of amplification was verified by first-derivative inciting curve analysis using the ABI software (SDS 2.3, Applied Biosystems, Foster City, Calif., U.S.A.). Relative quantification of gene expression profile was calculated using a ΔΔCt method. (RQ manager, Applied Biosystems, Foster City, C. CA, U.S.A.) as we have performed previously (Barve et al., J Pharm Sci., 2008; 94: 4528-45). Three independent experiments were carried out showing similar results. The results are presented as mean±SD.

DNMT3a = assay: qPCR in TRAMP C1 cells; type: cell-based, mouse; details: 5 μM, p<0.05
Method: as §1

DNMT3b = assay: qPCR in TRAMP C1 cells; type: cell-based, mouse; details: 5 μM and 10 μM
Method: as §1

GSTm1 = assay: qPCR in TRAMP C1 cells; type: cell-based, mouse; details: 5 days
Method: as §1

NQO1 = assay: qPCR in TRAMP C1 cells; type: cell-based, mouse; details: 5 days
Method: as §1

Nrf2 = assay: qPCR in TRAMP C1 cells; type: cell-based, mouse; details: 5 days
Method: as §1

c1ccc2c(Cc3c[nH]c4ccccc34)c[nH]c2c1 [DIM, 3,3′-diindolylmethane]
weights of liver, kidney and spleen ([1]; 1% DIM diet, at sacrifice): no significant change
body weights ([1]; 1% DIM diet, throughout the study period): No significant change
signs of toxicity ([1]; mouse, in vivo): no specific observable sign of toxicity
tolerability ([1]; mouse, in vivo): well-tolerated
5-MC IHC staining of the prostate tissue (5-methylcytosine (5-MC)): significantly decreased
DNMT1 mRNA expression (DNMT1): significantly suppressed
DNMT3a mRNA expression (DNMT3a): suppressed
DNMT3b mRNA expression (DNMT3b): suppressed
GSTm1 mRNA expression (GSTm1): enhanced
NQO1 mRNA expression (NQO1): enhanced
Nrf2 mRNA expression (Nrf2): enhanced
